Target: mouse β3-adrenergic receptor (mβ3-AR) (Mus musculus, UniProt P25962)
Experiment: cAMP accumulation
Assay type: cell-based

Chain of mouse β3-adrenergic receptor (mβ3-AR) (P25962 whole entry): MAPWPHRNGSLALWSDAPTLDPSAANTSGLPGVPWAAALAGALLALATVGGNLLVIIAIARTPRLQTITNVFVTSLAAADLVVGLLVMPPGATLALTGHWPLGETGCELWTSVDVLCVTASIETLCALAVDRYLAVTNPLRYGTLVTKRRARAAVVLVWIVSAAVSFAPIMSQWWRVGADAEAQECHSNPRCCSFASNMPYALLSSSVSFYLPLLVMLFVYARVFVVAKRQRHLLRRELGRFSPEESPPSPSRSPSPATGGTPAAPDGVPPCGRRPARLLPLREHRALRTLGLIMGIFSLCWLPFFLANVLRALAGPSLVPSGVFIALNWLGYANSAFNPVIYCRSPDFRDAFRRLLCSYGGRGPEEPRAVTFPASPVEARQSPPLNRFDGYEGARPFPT

C[C@H](Cc1ccc(OCC(=O)O)cc1)NC[C@H](O)c1cccc(Cl)c1 [compound 3, BRL37344]
EC50: 0.692 nM

— publication PMC9400856 (Molecular Informatics, 2022)
